Laboratory results published in article PMC9495235, “New MraYAA Inhibitors with an Aminoribosyl Uridine Structure and an Oxadiazole” (Antibiotics, 2022).
Entries after “also recorded” stand apart in the source; their conditions may differ.

Tests used:
[1] = Solubility in 5%DMSO-water (culture media); assay type: physicochemical; settings: at the highest final concentration tested
Method: (§1) Antibacterial activity was determined as previously described, but molecules were solubilized in 100% DMSO (cell culture grade) at 1 mg/mL concentration and 10-fold diluted in MHB just before utilization. The MHB-diluted solutions were then serially diluted in 5% DMSO-MHB, at final concentrations ranging from […] for compounds and 6.25 to 5% for DMSO.
(§2) Table S1. Antibacterial activity of compounds 12a-12i, and reference compounds.
(§3) final concentration tested

[2] = system: Enterococcus faecium ATCC 19434; experiment: Antibacterial activity (CMI); assay type: cell-based; settings: Gram +
Method: (§4) The antibacterial activity of MraY inhibitors 12a–12h was also evaluated against several bacterial strains. Gram-negative (E. coli ATCC 8730, C. freundii ATCC8090 and P. aeruginosa ATCC 27853) and Gram-positive pathogenic bacterial strains (S. aureus ATCC 25923 and E. faecium ATCC 19434), including a methicillin-resistant strain (S. aureus MRSA ATCC 43300), were selected as a representative of pathogen bacterial diversity. Piperacillin and vancomycin were used as positive control in the tests.
as §1, §2, §3

[3] = system: Pseudomonas aeruginosa ATCC 27853; experiment: Antibacterial activity (CMI); assay type: cell-based; settings: Gram -
Method: as §4, §1, §2, §3

[4] = system: Escherichia coli ATCC 8730; experiment: Antibacterial activity (CMI); assay type: cell-based; settings: Gram -
Method: as §4, §1, §2, §3

[5] = system: Citrobacter freundii ATCC 8090; experiment: Antibacterial activity (CMI); assay type: cell-based; settings: Gram -
Method: as §4, §1, §2, §3

[6] = system: Staphylococcus aureus ATCC 25923; experiment: Antibacterial activity (CMI); assay type: cell-based; settings: Gram +
Method: as §4, §1, §2, §3

[7] = system: Staphylococcus aureus MRSA ATCC 43300; experiment: Antibacterial activity (CMI); assay type: cell-based; settings: Gram +
Method: as §4, §1, §2, §3

[8] = molecular target: T1, MraY transferase purified from Aquifex aeolicus (MraYAA) (Aquifex aeolicus, UniProt O66465); experiment: Inhibition of MraYAA transferase activity; assay type: biochemical; settings: for IC50: read-out: IC50 against MraYAA
T1 construct: His; made in house
T1 sequence (O66465 whole entry): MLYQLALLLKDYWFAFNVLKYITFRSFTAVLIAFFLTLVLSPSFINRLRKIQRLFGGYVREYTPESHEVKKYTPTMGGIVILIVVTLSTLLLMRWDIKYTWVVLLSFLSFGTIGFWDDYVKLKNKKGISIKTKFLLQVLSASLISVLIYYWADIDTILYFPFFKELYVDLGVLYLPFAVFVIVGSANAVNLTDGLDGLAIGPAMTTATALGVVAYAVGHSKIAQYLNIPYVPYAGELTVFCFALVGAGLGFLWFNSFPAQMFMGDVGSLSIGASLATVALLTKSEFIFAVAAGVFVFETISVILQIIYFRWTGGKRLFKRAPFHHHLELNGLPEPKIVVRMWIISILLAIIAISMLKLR
Method: The inhibitory activity of the synthesized compounds 12a–12j was evaluated on MraY transferase purified from Aquifex aeolicus (MraYAA) prepared as previously described by Chung et al.. Their activity (Table 4) was compared to the inhibitory activity of the N-triazole-containing inhibitor 13 (Figure 3) that we previously synthesized (Table 4). Commercially available tunicamycin from Streptomyces sp. was used as a positive control in the test.
The inhibitory activity of the synthesized compounds 1–5 was determined as described in reference except that compounds were tested at a final concentration of 10% DMSO. The compounds were evaluated on His-tagged MraY transferase purified from Aquifex aeolicus (MraYAA) prepared as previously described by Chung et al.. The assays were performed as previously described by Stachyra et al..

[9] = final concentration of 10% DMSO, triplicate, repeated at least twice (tunicamycin tested twice)

Compound | solubility in 5%DMSO-water (culture media) [1] | CMI [2] [µg/mL] | CMI [3] [µg/mL] | CMI [4] [µg/mL] | CMI [5] [µg/mL] | CMI [6] [µg/mL] | CMI [7] [µg/mL] | IC50 against MraYAA [8, 9] | IC50 [8, 9] [µM] | activity relative to the parent ester ([8]; relative to parent ethyl ester (12h), MraYAA)
CCCCCCCCCCC(CCCCCCCCCC)c1nc(C[C@H](O[C@@H]2O[C@H](CN)[C@@H](O)[C@H]2O)[C@H]2O[C@@H](n3ccc(=O)[nH]c3=O)[C@H](O)[C@@H]2O)no1.O=C(O)C(F)(F)F [Compound 12i] | insoluble | > 50 | > 50 | > 50 | > 50 | > 50 | > 50 | no activity; also recorded: N.I. ^e | – | –
CCCCCCCCCC(C(=O)OCC)c1nc(C[C@H](O[C@@H]2O[C@H](CN)[C@@H](O)[C@H]2O)[C@H]2O[C@@H](n3ccc(=O)[nH]c3=O)[C@H](O)[C@@H]2O)no1 (mixture of isomers) [Compound 12h] | – | > 50 | > 50 | > 50 | > 50 | > 50 | > 50 | – | 27.5 ± 0.7 | –
CCCCCCCCCCCCCCCCCCc1nc(C[C@H](O[C@@H]2O[C@H](CN)[C@@H](O)[C@H]2O)[C@H]2O[C@@H](n3ccc(=O)[nH]c3=O)[C@H](O)[C@@H]2O)no1.O=C(O)C(F)(F)F [Compound 12c] | insoluble | 50 | > 50 | > 50 | > 50 | 50 | 50 | – | 15.8 ± 1 | –
CCCCCCCCCC(C(=O)O)c1nc(C[C@H](O[C@@H]2O[C@H](CN)[C@@H](O)[C@H]2O)[C@H]2O[C@@H](n3ccc(=O)[nH]c3=O)[C@H](O)[C@@H]2O)no1 (some centres unmarked) [Compound 12j] | – | – | – | – | – | – | – | – | 2.9 ± 0.6 | almost tenfold more active
NC[C@H]1O[C@@H](O[C@@H](Cc2noc(-c3ccc(Oc4ccccc4)cc3)n2)[C@H]2O[C@@H](n3ccc(=O)[nH]c3=O)[C@H](O)[C@@H]2O)[C@H](O)[C@@H]1O.O=C(O)C(F)(F)F [Compound 12e] | – | > 50 | > 50 | > 50 | > 50 | > 50 | > 50 | – | 3.2 ± 0.2 | –
CCCCCCCCCCc1nc(C[C@H](O[C@@H]2O[C@H](CN)[C@@H](O)[C@H]2O)[C@H]2O[C@@H](n3ccc(=O)[nH]c3=O)[C@H](O)[C@@H]2O)no1.O=C(O)C(F)(F)F [Compound 12a] | – | > 50 | > 50 | > 50 | > 50 | > 50 | > 50 | – | 0.8 ± 0.1 | –
CCCCCCCC/C=C\CCCCCCCc1nc(C[C@H](O[C@@H]2O[C@H](CN)[C@@H](O)[C@H]2O)[C@H]2O[C@@H](n3ccc(=O)[nH]c3=O)[C@H](O)[C@@H]2O)no1.O=C(O)C(F)(F)F [Compound 12d] | insoluble | > 50 | > 50 | > 50 | > 50 | > 50 | > 50 | – | 18.9 ± 0.9 | –
CCCCCCCCCCc1cn(C[C@H](O[C@@H]2O[C@H](CN)[C@@H](O)[C@H]2O)[C@H]2O[C@@H](n3ccc(=O)[nH]c3=O)[C@H](O)[C@@H]2O)nn1 [Compound 13, reference compound] | – | – | – | – | – | – | – | – | 1.1 | –
CCN1CCN(C(=O)N[C@@H](C(=O)N[C@@H]2C(=O)N3[C@@H]2SC(C)(C)[C@@H]3C(=O)O)c2ccccc2)C(=O)C1=O [Piperacillin, reference compound] | – | 4 | 8 | 4 | 4 | 4 | > 128 | – | – | –
CN[C@H](CC(C)C)C(=O)N[C@H]1C(=O)N[C@@H](CC(N)=O)C(=O)N[C@H]2C(=O)N[C@H]3C(=O)N[C@H](C(=O)N[C@H](C(=O)O)c4cc(O)cc(O)c4-c4cc3ccc4O)[C@H](O)c3ccc(c(Cl)c3)Oc3cc2cc(c3O[C@@H]2O[C@H](CO)[C@@H](O)[C@H](O)[C@H]2O[C@H]2C[C@](C)(N)[C@H](O)[C@H](C)O2)Oc2ccc(cc2Cl)[C@H]1O [Vancomycin, reference compound] | – | 0.5 | – | – | – | 1 | 1 | – | – | –
Tunicamycin [reference compound] | – | – | – | – | – | – | – | – | 0.026 | –
CCCCCCCC/C=C/CCCCCCCc1nc(C[C@H](O[C@@H]2O[C@H](CN)[C@@H](O)[C@H]2O)[C@H]2O[C@@H](n3ccc(=O)[nH]c3=O)[C@H](O)[C@@H]2O)no1.O=C(O)C(F)(F)F [Compound 12f] | insoluble | 50 | > 50 | > 50 | > 50 | 50 | 50 | – | 17.3 ± 0.3 | –
CCCCCCCCCCCCCCCc1nc(C[C@H](O[C@@H]2O[C@H](CN)[C@@H](O)[C@H]2O)[C@H]2O[C@@H](n3ccc(=O)[nH]c3=O)[C@H](O)[C@@H]2O)no1.O=C(O)C(F)(F)F [Compound 12b] | – | > 50 | > 50 | > 50 | > 50 | > 50 | > 50 | – | 9.3 ± 0.2 | –
NC[C@H]1O[C@@H](O[C@@H](Cc2noc(CCCCCCCCCc3ccccc3)n2)[C@H]2O[C@@H](n3ccc(=O)[nH]c3=O)[C@H](O)[C@@H]2O)[C@H](O)[C@@H]1O.O=C(O)C(F)(F)F [Compound 12g] | – | > 50 | > 50 | > 50 | > 50 | > 50 | > 50 | – | 5.8 ± 0.1 | –
